Measured values taken from US10471046B2, “Method for treating, preventing, or reducing the risk of skin infection” (Melinta Subsidiary Corp., priority 2014, dated 2019).

The molecules below were run on S. aureus (assay: Minimum inhibitory concentrations (MICs) for S. aureus of exemplary compounds (Table 2)). Details: Staphylococcus aureus, minimum inhibitory concentrations for S. aureus; read-out: MICs.
Assay type: cell-based
Procedure, shortened: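 Growth of S. aureus in media with or without compound, by broth microdilution in microtiter trays following NCCLS M7-A5 guidelines. Values are MICs in μg/mL.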

MIC, 128 mg/L:
CC(=O)NC[C@H]1CN(c2ccc(-c3ccc(CN4CCN(c5ncc(C(F)(F)F)cc5Cl)CC4)cc3)c(F)c2)C(=O)O1 [Compound 1038, N-(3-{4′-[4-(3-Chloro-5-trifluoromethyl-pyridin-2-yl)-piperazin-1-ylmethyl]-2-fluoro-biphenyl-4-yl}-2-oxo-oxazolidin-5-(S)-ylmethyl)-acetamide]

MIC, 1 mg/L:
CC(=O)NC[C@H]1CN(c2ccc(-c3ccc(CNCCSc4cnn[nH]4)cc3)c(F)c2)C(=O)O1 [Compound 5001, N-[3-(2-Fluoro-4′-{[2-(3H-[1,2,3]triazol-4-ylsulfanyl)-ethylamino]-methyl}-biphenyl-4-yl)-2-oxo-oxazolidin-5-(S)-ylmethyl]-acetamide]
CC(=O)NC[C@H]1CN(c2ccc(-c3ccc(C(=O)NCc4nccs4)nc3)c(F)c2)C(=O)O1 [Compound 4189, 5-{4-[5-(S)-(Acetylamino-methyl)-2-oxo-oxazolidin-3-yl]-2-fluoro-phenyl}-pyridine-2-carboxylic acid (thiazol-2-ylmethyl)-amide]
CC(=O)NC[C@H]1CN(c2ccc(-c3ccc(CSc4nc(C)cs4)cc3)c(F)c2)C(=O)O1 [Compound 2031, N-{3-[2-Fluoro-4′-(4-methyl-thiazol-2-ylsulfanylmethyl)-biphenyl-4-yl]-2-oxo-oxazolidin-5-(S)-ylmethyl}-acetamide]
CC(=O)NC[C@H]1CN(c2ccc(-c3ccc(Cn4ccnn4)nc3)c(F)c2)C(=O)O1 [Compound 1036, N-{3-[3-Fluoro-4-(6-[1,2,3]triazol-1-ylmethyl-pyridin-3-yl)-phenyl]-2-oxo-oxazolidin-5-(S)-ylmethyl}-acetamide]
CC(=O)NC[C@H]1CN(c2ccc(-c3ccc(C[S+]([O-])c4nncs4)cc3)c(F)c2)C(=O)O1 (stereo partly drawn) [Compound 2035, N-{3-[2-Fluoro-4′-([1,3,4]thiadiazole-2-sulfinylmethyl)-biphenyl-4-yl]-2-oxo-oxazolidin-5-(S)-ylmethyl}-acetamide]
CC(=O)NC[C@H]1CN(c2ccc(-c3ccc(Cn4ccc(N)n4)cc3)c(F)c2)C(=O)O1 [Compound 1053, N-{3-[4′-(3-Amino-pyrazol-1-ylmethyl)-2-fluoro-biphenyl-4-yl]-2-oxo-oxazolidin-5-(S)-ylmethyl}-acetamide]
CC(=O)NC[C@H]1CN(c2ccc(-c3ccc(CN4CCCC(F)C4)cc3)c(F)c2)C(=O)O1 (mixture of isomers) [Compound 1096, N-{3-[2-Fluoro-4′-(3-(R/S)-fluoro-piperidin-1-ylmethyl)-biphenyl-4-yl]-2-oxo-oxazolidin-5-(S)-ylmethyl}-acetamide]
CC(=O)NC[C@H]1CN(c2ccc(-c3ccc(Cn4ccnc4)c(F)c3)c(F)c2)C(=O)O1 [Compound 1010, N-[3-(2,3′-Difluoro-4′-imidazol-1-ylmethyl-biphenyl-4-yl)-2-oxo-oxazolidin-5-(S)-ylmethyl]-acetamide]

MIC, 0.25 mg/L:
CC(=O)NC[C@H]1CN(c2ccc(-c3ccc(CNNC(=O)c4cccnc4)cc3)c(F)c2)C(=O)O1 [Compound 4237, N-(3-{2-Fluoro-4′-[N′-(pyridine-3-carbonyl)-hydrazinomethyl]-biphenyl-4-yl}-2-oxo-oxazolidin-5-(S)-ylmethyl)-acetamide]
CC(=O)NC[C@H]1CN(c2ccc(-c3ccc(CNCc4c(-c5ccccc5)noc4C)cc3)c(F)c2)C(=O)O1 [Compound 4104, N-[3-(2-Fluoro-4′-{[(5-methyl-3-phenyl-isoxazol-4-ylmethyl)-amino]-methyl}-biphenyl-4-yl)-2-oxo-oxazolidin-5-(S)-ylmethyl]-acetamide]
O=C(CCl)NC[C@H]1CN(c2ccc(-c3ccc(Cn4cnnn4)cc3)c(F)c2)C(=O)O1 [Compound 1033, 2-Chloro-N-[3-(2-fluoro-4′-tetrazol-1-ylmethyl-biphenyl-4-yl)-2-oxo-oxazolidin-5-(S)-ylmethyl]-acetamide]

MIC, 16 mg/L:
CC(=O)NC[C@H]1CN(c2ccc(-c3ccc(C(=N)NCc4ccccn4)cc3)c(F)c2)C(=O)O1 [Compound 4097, N-{3-[2-Fluoro-4′-(N-pyridin-2-ylmethyl-carbamimidoyl)-biphenyl-4-yl]-2-oxo-oxazolidin-5-(S)-ylmethyl}-acetamide]
CC(=O)NC[C@H]1CN(c2ccc(-c3ccc(CNC(=O)C4CC4)cc3)c(F)c2)C(=O)O1 [Compound 4319, Cyclopropanecarboxylic acid {4′-[5-(S)-(acetylamino-methyl)-2-oxo-oxazolidin-3-yl]-2′-fluoro-biphenyl-4-ylmethyl}-amide]

MIC, 2 mg/L:
CC(=O)NC[C@H]1CN(c2ccc(-c3ccc(NC(=O)NCCc4ccccn4)cc3)c(F)c2)C(=O)O1 [Compound 6003, N-(3-{2-Fluoro-4′-[3-(2-pyridin-2-yl-ethyl)-ureido]-biphenyl-4-yl}-2-oxo-oxazolidin-5-(S)-ylmethyl)-acetamide]
CC(=O)NC[C@H]1CN(c2ccc(-c3ccc(CN4CCN(CC#N)CC4)c(F)c3)c(F)c2)C(=O)O1 [Compound 1005, N-{3-[4′-(4-Cyanomethyl-piperazin-1-ylmethyl)-2,3′-difluoro-biphenyl-4-yl]-2-oxo-oxazolidin-5-(S)-ylmethyl}-acetamide]
CC(=O)NC[C@H]1CN(c2ccc(-c3ccc(CN4CCCC(F)(F)C4)cc3)c(F)c2)C(=O)O1 [Compound 1097, N-{3-[4′-(3,3-Difluoro-piperidin-1-ylmethyl)-2-fluoro-biphenyl-4-yl]-2-oxo-oxazolidin-5-(S)-ylmethyl}-acetamide]
CC(=O)NC[C@H]1CN(c2ccc(-c3ccc([C@H](O)CN(CCS(C)(=O)=O)Cc4ccccc4)cc3)c(F)c2)C(=O)O1 [Compound 4286, N-[3-(4′-{2-[Benzyl-(2-methanesulfonyl-ethyl)-amino]-1-(S)-hydroxy-ethyl}-2-fluoro-biphenyl-4-yl)-2-oxo-oxazolidin-5-(S)-ylmethyl]-acetamide]
CC(=O)NC[C@H]1CN(c2ccc(-c3ccc(CCn4ccnc4)cc3)c(F)c2)C(=O)O1 [Compound 1002, N-{3-[2-Fluoro-4′-(2-imidazol-1-yl-ethyl)-biphenyl-4-yl]-2-oxo-oxazolidin-5-(S)-ylmethyl}-acetamide]
CC(=O)NC[C@H]1CN(c2ccc(-c3ccc(CNS(=O)(=O)c4cn(C)cn4)cc3)c(F)c2)C(=O)O1 [Compound 2043, N-(3-{2-Fluoro-4′-[(1-methyl-1H-imidazole-4-sulfonylamino)-methyl]-biphenyl-4-yl}-2-oxo-oxazolidin-5-(S)-ylmethyl)-acetamide]
CC(=O)NC[C@H]1CN(c2ccc(-c3ccc(CNCc4cc[n+]([O-])cc4)cc3)c(F)c2)C(=O)O1 [Compound 4245, N-[3-(2-Fluoro-4′-{[(1-oxy-pyridin-4-ylmethyl)-amino]-methyl}-biphenyl-4-yl)-2-oxo-oxazolidin-5-(S)-ylmethyl]-acetamide]
CC(=O)NC[C@H]1CN(c2ccc(-c3ccc([C@@H](O)CNCc4ccncc4)cc3)c(F)c2)C(=O)O1 [Compound 4201, N-[3-(2-Fluoro-4′-{1-(R)-hydroxy-2-[(pyridin-4-ylmethyl)-amino]-ethyl}-biphenyl-4-yl)-2-oxo-oxazolidin-5-(S)-ylmethyl]-acetamide]

MIC, 0.5 mg/L:
O=C1O[C@@H](Cn2ccnn2)CN1c1ccc(-c2ccc(Cn3cccn3)cc2)c(F)c1 [Compound 1085, 3-(2-Fluoro-4′-pyrazol-1-ylmethyl-biphenyl-4-yl)-5-(R)-[1,2,3]triazol-1-ylmethyl-oxazolidin-2-one]
CC(=O)NC[C@H]1CN(c2ccc(-c3ccc(CNCc4c(C(F)(F)F)nn(C)c4Cl)cc3)c(F)c2)C(=O)O1 [Compound 4125, N-[3-(4′-{[(5-Chloro-1-methyl-3-trifluoromethyl-1H-pyrazol-4-ylmethyl)-amino]-methyl}-2-fluoro-biphenyl-4-yl)-2-oxo-oxazolidin-5-(S)-ylmethyl]-acetamide]

MIC, 4 mg/L:
CC(=O)NC[C@H]1CN(c2ccc(-c3ccc(CNCCCNc4ncc(C(F)(F)F)cc4Cl)cc3)c(F)c2)C(=O)O1 [Compound 5015, N-[3-(4′-{[3-(3-Chloro-5-trifluoromethyl-pyridin-2-ylamino)-propylamino]-methyl}-2-fluoro-biphenyl-4-yl)-2-oxo-oxazolidin-5-(S)-ylmethyl]-acetamide]
CC(=O)NC[C@H]1CN(c2ccc(-c3ccc(CN(C)C(=O)c4cccn4C)cc3)c(F)c2)C(=O)O1 [Compound 4051, 1-Methyl-1H-pyrrole-2-carboxylic acid {4′-[5-(S)-(acetylamino-methyl)-2-oxo-oxazolidin-3-yl]-2′-fluoro-biphenyl-4-ylmethyl}-methyl-amide]
CC(=O)NC[C@H]1CN(c2ccc(-c3ccc(Cn4ccnc4)nc3)c(F)c2)C(=O)O1 [Compound 1077, N-{3-[3-Fluoro-4-(6-imidazol-1-ylmethyl-pyridin-3-yl)-phenyl]-2-oxo-oxazolidin-5-(S)-ylmethyl}-acetamide]
CC(=O)NC[C@H]1CN(c2ccc(-c3ccc(CNCc4nccn4C)cc3)c(F)c2)C(=O)O1 [Compound 4076, N-[3-(2-Fluoro-4′-{[(1-methyl-1H-imidazol-2-ylmethyl)-amino]-methyl}-biphenyl-4-yl)-2-oxo-oxazolidin-5-(S)-ylmethyl]-acetamide]
CC(=O)NC[C@H]1CN(c2ccc(-c3ccc(CN4CC[C@@H](O)C4)cc3)c(F)c2)C(=O)O1 [Compound 1088, N-{3-[2-Fluoro-4′-(3-(R)-hydroxy-pyrrolidin-1-ylmethyl)-biphenyl-4-yl]-2-oxo-oxazolidin-5-(S)-ylmethyl}-acetamide]
CC(=O)NC[C@H]1CN(c2ccc(-c3ccc(CNCc4ccoc4)cn3)c(F)c2)C(=O)O1 [Compound 4053, N-{3-[3-Fluoro-4-(5-{[(furan-3-ylmethyl)-amino]-methyl}-pyridin-2-yl)-phenyl]-2-oxo-oxazolidin-5-(S)-ylmethyl}-acetamide]
CC(=O)NC[C@H]1CN(c2ccc(-c3ccc(CNCC4CC4)cc3)c(F)c2)C(=O)O1 [Compound 4300, N-(3-{4′-[(Cyclopropylmethyl-amino)-methyl]-2-fluoro-biphenyl-4-yl}-2-oxo-oxazolidin-5-(S)-ylmethyl)-acetamide]
